# Data: BindingDB's records for doi:10.1021/jm401292m (Mcgill University, 2014)
# Experiment: Antagonist activity at OXE receptor (unknown origin) expressed in neutrophils assessed as inhibition of 5-oxo-ETE-induced cell migration after 2 hrs by hematoxylin/chromotrope 2R staining-based microscopic analysis
smiles,measurement,value
CCCCCCc1c(C(=O)CC(C)CC(=O)O)c2cc(Cl)ccc2n1C (stereo unspecified),IC50,454 nM
